This assay has as its system CLL cells co-cultured with MSCs. Description: CLL cells co-cultured with marrow stromal cells (MSC), DiOC6/PI viability. To be noted: compound 5 μM; bendamustine, fludarabine, dexamethasone 10 μM. The text has this:
The viable cell population was characterized by bright DiOC6 staining and PI exclusion, and was gated in the lower right corner of each contour plot.
Viabilities of drug-treated samples were normalized to the viabilities of control samples at the respective timepoints (100%).

In the case of `CC[C@H](Nc1ncnc2[nH]cnc12)c1nc2cccc(F)c2c(=O)n1-c1ccccc1` [Compound I, 5-fluoro-3-phenyl-2-[1-(9H-purin-6-ylamino)-propyl]-3H-quinazolin-4-one], the “CLL cell death / survival in co-culture with MSC” value is reported as “sensitized CLL cells to the cytotoxic agents”.

For the origin of these results see US20130064812A1, “COMBINATION THERAPIES FOR HEMATOLOGIC MALIGNANCIES” (Gilead Calistoga LLC, priority 2011, published 2013).
